# From PMC8963105, “A Novel Modulator of the Renin–Angiotensin System, Benzoylaconitine, Attenuates Hypertension by Targeting ACE/ACE2 in Enhancing Vasodilation and Alleviating Vascular Inflammation” (Frontiers in Pharmacology, 2022)
# What was measured:
# TNF-α = test: serum TNF-α by ELISA in SHRs; type: in vivo, rat; settings: oral 14 days
# From the text: (§1) All three MDAs (BAC, BMC, and BHC) were purchased from Nature-Standard Co., Ltd. (Shanghai, China) and their purities were all over 98%. The anti-hypertensive effects of MDAs were studied in both acute and chronic experiments. The 16-week-old SHRs were used in animal experiments, and each group had six rats. In the acute experiment, drug administration was via i.v. injection. For i.v. injection, the animals were randomly assigned into four groups: vehicle (0.1% DMSO–0.9% salt solution, n = 6), low-dose group (0.6 mg kg^−1 body weight, n = 6), medium-dose group (2 mg kg^−1 body weight, n = 6), and high-dose group (6 mg kg^−1 body weight, n = 6). The drug was administered using a venous catheter. […] Blood pressure was recorded in real time.
# (§2) Blood samples were collected from the left femoral artery of rats at the end point, followed by centrifugation at 1,000 × g for 15 min at 4°C. […] The concentrations of circulating ACE, ACE2, Ang I, Ang II, Ang (1–7), TNF-α, and IL-6 in serum were measured using the ELISA kits [ACE, cat#xy-R2401c, X-Y Biotechnology, Shanghai, China; ACE2, cat#xy-ACE2-Ra, X-Y Biotechnology; Ang I, cat#xy-E12541, X-Y Biotechnology; Ang II, cat#xy-R1430c, X-Y Biotechnology; Ang (1–7), cat#xy-Ang1-7-Ra, X-Y Biotechnology; TNF-α, cat#GM1149, Servicebio, Shanghai, China; IL-6, cat#GM1154, Servicebio] according to the manufacturer’s instructions. […]
# hrACE2 = hrACE2 (Homo sapiens, UniProt Q9BYF1); test: SensoLyte390 ACE2 activity assay (enzyme kinetics, cell-free); type: biochemical; settings: 37°C, 30 min, read-out: EC50 (ACE2 activity, excitatory effect)
# Protocol: ACE and ACE2 activities were measured using the ACE activity assay kit and SensoLyte390 ACE2 activity assay kit (Anaspec, Fremont, CA, United States), respectively, according to the manufacturer’s instructions with some modifications. Briefly, rhACE solution dissolved in deionized water was used for analysis. ACE activity was measured in a reaction system with 50 μl of the sample and 50 μl of the ACE substrate solution with or without BAC (10^–4 to 10^–2 μM). ACE2 activity was assayed in the same manner as ACE activity. All assays were performed every 10 s for 30 min at 37°C using a Varioskan LUX fluorescence microplate reader (Thermo Fisher Scientific, Waltham, MA, United States). The autofluorescence value in each assay was subtracted from the measured values to generate the final results. The relative fluorescence unit of each sample was normalized to the corresponding total protein concentration, which was measured using a Pierce BCA protein assay kit (Thermo Fisher Scientific).
# p-IKB-α = test: phosphorylation of IKB-α in aorta of SHRs (Western blot); type: in vivo, rat; settings: oral 14 days
# From the text: as §1, with “catheter. In chronic experiments, the animals were randomly assigned into five groups: vehicle (5% Tween 80–0.9% salt solution, n = 6), captopril group (5 mg kg^−1 body weight, n = 6), low-dose group (3 mg kg^−1 body weight, n = 6), medium-dose group (10 mg kg^−1 body weight, n = 6), and high-dose group (30 mg kg^−1 body weight, n = 6). Oral administration with drug or 5% Tween 80–0.9% salt solution was carried out once a day, and continued for 14 days.” for “catheter.”
# The cell samples and tissue sample were collected and placed in ice rapidly. […] Protein concentration in cell lysates was measured using a Bio-Rad DC Protein Assay Kit […]. […]
# Ang II = test: serum Ang II by ELISA in SHRs after 14-day oral administration; type: in vivo, rat; settings: oral 14 days
# From the text: as §1, §2
# rhACE2 = target: T1, rhACE2 (Homo sapiens, UniProt Q9BYF1); test: SPR assay with rhACE2; type: binding; settings: rhACE2 on chip, 5% DMSO–1.05× PBS
# T1 construct: purchased Proteintech
# Protocol: To screen the potential targets of the MDAs in hypertension, a CVDPlatform (www.cbligand.org/CVD) was used as previously reported ([Zhang et al., 2016a]). The results of database screening were verified by virtual docking with Discovery Studio 3.5 (BIOVIA, San Diego, CA, United States) and then validated in the SPR assay. In the SPR assay, a solution of protein standards was prepared, and the concentration of recombinant human ACE (rhACE) protein and rhACE2 (Proteintech, Rosemont, IL, United States) solution was set to 500 μg ml^−1. […] Finally, the level of binding between the proteins and each molecule was determined based on the K d value.
# hrACE2, sequence (Q9BYF1 18-805): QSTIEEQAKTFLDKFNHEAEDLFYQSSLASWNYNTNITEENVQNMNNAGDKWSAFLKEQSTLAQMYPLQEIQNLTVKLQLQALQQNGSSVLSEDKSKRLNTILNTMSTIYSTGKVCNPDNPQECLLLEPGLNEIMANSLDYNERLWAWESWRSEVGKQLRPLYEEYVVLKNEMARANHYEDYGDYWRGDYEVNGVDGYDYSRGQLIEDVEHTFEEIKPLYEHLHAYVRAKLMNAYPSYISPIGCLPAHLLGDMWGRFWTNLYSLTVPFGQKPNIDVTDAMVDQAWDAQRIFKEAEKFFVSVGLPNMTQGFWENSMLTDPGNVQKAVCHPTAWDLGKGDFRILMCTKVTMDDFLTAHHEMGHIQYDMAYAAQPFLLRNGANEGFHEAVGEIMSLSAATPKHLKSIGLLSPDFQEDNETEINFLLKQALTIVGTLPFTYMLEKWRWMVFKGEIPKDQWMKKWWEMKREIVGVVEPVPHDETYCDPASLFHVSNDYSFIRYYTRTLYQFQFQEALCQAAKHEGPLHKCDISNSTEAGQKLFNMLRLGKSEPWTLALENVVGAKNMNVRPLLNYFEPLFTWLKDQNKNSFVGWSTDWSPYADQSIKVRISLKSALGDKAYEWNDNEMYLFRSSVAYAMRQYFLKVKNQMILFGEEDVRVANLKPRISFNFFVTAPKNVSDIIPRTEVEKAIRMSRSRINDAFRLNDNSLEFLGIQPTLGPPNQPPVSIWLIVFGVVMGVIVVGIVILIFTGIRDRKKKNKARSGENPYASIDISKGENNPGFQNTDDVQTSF
# T1 sequence (Q9BYF1 18-805): as above
compound,measurement,setting,value
"CCN1CC2(COC)C(O)CC(OC)C34C5CC6(O)C(OC)C(O)C(O)(C5C6OC(=O)c5ccccc5)C(C(OC)C23)C14 (centres unmarked) [BAC, Benzoylaconitine]",level of TNF-α in serum,TNF-α,reduced
same,EC50,hrACE2,1500 nM
same,phosphorylation of IKB-α,p-IKB-α,downregulated
same,level of Ang II in blood,Ang II,decreased
same,Kd,rhACE2,3120 nM
